Data published in US8691829B2, “Treatment of liver disorders with PI3K inhibitors” (Gilead Calistoga LLC, priority 2009, dated 2014).

How the values were obtained:
[1] = system: steatosis development; conditions: diet-induced p85 expression and steatosis; Kohli et al. 2007; cited from earlier work
[2] = system: hepatocytes; conditions: hepatocytes exposed to conditions that generate reactive oxygen species; Kohli et al. 2007; cited from earlier work
[3] = target: PI3Kγ (Homo sapiens (Human), UniProt P48736); test: Selectivity of selected PI3K inhibitors (γ/δ); type: biochemical; conditions: ratio PI3Kγ relative to PI3Kδ
PI3Kγ, sequence (P48736 whole entry, species assumed): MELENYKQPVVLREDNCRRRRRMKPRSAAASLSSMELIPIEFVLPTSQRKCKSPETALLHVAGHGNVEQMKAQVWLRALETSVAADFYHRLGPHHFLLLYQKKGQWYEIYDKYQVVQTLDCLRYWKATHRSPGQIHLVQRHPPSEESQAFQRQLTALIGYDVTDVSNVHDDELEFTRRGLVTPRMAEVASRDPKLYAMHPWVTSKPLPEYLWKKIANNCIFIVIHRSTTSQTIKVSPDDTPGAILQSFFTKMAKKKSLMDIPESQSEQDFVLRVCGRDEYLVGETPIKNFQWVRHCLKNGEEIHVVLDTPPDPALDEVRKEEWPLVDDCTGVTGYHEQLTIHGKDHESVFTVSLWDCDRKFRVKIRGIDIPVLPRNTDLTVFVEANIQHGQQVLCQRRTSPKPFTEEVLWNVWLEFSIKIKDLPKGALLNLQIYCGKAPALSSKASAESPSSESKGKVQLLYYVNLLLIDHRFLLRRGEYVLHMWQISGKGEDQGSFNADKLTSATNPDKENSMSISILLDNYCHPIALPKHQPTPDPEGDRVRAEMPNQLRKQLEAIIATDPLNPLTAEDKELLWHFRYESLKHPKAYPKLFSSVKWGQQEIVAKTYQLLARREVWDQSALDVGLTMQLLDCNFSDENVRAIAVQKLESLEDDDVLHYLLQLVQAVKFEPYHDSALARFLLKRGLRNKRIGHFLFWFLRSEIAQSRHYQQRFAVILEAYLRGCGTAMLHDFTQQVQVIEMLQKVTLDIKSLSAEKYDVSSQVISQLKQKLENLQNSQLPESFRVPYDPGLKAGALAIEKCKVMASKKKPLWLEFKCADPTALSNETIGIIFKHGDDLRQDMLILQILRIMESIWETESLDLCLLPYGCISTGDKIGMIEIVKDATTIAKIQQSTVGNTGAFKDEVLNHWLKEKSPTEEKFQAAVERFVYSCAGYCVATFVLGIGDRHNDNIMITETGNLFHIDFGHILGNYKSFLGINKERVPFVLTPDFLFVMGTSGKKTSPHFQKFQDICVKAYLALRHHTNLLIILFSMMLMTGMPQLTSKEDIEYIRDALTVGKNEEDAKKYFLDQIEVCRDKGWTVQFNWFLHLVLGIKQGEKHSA
From the text: (§1) The compounds of formula (3) are readily prepared from available starting material using methods that are known in the art. […] Scheme A in that application provides a route by which the thienopyrimidinone portions of compounds of formula (2a) can be prepared, and Schemes B-G provide routes by which the thienopyrimidinone portions of compounds of formula (2b) can be prepared. […] These references also provide methods for determining the activity of these compounds as inhibitors of PI3Kδ; thus those methods are known in the art.

[4] = target: PI3Kα (Homo sapiens (Human), UniProt P42336); test: Selectivity of selected PI3K inhibitors (α/δ); type: biochemical; conditions: ratio PI3Kα relative to PI3Kδ
PI3Kα, sequence (P42336 whole entry, species assumed): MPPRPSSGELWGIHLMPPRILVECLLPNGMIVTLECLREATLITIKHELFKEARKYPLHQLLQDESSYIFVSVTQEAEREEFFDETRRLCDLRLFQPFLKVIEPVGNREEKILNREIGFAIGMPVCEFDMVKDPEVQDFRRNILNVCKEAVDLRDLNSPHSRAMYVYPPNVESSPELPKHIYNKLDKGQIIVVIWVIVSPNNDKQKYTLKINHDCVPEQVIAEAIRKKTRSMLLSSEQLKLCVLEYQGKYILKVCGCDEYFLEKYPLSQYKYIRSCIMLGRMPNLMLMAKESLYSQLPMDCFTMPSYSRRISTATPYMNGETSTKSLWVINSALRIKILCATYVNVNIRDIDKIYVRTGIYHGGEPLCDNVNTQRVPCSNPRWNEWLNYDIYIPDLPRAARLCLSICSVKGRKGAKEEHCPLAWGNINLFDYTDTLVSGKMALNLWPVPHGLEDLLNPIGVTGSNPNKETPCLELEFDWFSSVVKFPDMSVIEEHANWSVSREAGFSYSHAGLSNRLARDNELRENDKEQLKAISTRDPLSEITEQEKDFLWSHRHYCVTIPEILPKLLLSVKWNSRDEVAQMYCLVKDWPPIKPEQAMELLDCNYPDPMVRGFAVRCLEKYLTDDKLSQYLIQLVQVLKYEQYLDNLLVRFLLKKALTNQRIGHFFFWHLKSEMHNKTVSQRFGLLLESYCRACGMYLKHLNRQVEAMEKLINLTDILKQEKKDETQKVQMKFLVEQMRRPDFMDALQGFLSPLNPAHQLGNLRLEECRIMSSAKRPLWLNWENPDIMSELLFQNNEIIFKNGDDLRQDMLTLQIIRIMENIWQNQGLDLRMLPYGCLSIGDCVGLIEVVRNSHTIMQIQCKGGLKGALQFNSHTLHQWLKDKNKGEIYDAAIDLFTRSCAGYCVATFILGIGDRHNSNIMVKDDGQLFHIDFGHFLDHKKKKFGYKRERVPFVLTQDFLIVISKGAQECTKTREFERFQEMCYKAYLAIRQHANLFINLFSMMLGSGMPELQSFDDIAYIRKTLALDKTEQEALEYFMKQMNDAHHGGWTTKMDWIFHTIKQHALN
PI3Kα, sequence (P27986 whole entry partner, species assumed): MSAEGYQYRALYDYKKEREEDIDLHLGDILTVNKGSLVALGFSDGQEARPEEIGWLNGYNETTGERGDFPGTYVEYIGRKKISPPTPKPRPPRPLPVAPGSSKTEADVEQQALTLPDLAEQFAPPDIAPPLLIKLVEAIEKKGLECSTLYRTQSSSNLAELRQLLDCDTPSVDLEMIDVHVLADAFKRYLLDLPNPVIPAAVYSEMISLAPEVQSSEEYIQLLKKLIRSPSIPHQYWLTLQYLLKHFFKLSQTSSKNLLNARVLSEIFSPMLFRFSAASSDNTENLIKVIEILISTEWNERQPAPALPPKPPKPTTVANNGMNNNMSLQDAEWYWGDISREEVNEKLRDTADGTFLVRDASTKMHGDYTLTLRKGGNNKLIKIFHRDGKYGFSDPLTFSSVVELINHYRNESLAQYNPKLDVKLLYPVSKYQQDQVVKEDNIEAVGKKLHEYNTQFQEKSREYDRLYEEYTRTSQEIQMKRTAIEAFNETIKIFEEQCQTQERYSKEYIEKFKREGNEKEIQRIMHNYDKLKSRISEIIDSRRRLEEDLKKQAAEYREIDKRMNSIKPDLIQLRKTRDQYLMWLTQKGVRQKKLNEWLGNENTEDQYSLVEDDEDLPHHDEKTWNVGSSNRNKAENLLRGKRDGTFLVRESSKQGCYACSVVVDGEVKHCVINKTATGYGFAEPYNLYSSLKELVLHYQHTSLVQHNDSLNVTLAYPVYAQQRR
From the text: as §1

[5] = target: PI3Kβ (Homo sapiens (Human), UniProt P42338); test: Selectivity of selected PI3K inhibitors (β/δ); type: biochemical; conditions: ratio PI3Kβ relative to PI3Kδ
PI3Kβ, sequence (P42338 whole entry, species assumed): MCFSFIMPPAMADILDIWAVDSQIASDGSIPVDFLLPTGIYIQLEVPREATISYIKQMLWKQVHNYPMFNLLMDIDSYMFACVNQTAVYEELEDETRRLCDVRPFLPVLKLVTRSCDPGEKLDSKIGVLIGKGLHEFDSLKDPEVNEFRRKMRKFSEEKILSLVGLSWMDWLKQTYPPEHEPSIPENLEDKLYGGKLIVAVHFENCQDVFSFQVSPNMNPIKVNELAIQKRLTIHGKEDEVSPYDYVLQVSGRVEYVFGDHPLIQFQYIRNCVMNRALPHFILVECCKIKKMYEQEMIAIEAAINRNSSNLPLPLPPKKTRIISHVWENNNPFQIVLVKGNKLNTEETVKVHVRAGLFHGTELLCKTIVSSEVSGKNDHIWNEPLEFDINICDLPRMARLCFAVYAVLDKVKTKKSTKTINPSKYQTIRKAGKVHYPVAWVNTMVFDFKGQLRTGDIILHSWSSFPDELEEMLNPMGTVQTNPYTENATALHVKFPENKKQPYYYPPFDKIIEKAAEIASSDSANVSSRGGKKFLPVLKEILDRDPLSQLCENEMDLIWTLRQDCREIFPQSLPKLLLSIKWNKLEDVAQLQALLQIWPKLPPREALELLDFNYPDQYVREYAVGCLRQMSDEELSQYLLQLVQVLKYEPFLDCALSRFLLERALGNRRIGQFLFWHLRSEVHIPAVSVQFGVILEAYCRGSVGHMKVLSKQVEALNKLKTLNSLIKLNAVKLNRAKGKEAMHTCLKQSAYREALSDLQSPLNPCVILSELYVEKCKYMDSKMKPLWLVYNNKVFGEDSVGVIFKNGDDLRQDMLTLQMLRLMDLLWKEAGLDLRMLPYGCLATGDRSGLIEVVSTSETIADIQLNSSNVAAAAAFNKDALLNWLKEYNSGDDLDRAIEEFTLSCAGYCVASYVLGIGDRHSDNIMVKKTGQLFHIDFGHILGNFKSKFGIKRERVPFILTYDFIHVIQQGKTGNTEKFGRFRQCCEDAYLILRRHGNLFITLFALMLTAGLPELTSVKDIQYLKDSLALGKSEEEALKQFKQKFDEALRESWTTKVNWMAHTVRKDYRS
PI3Kβ, sequence (P27986 whole entry partner, species assumed): as the sequence (P27986 whole entry partner, species assumed) above
From the text: as §1

[6] = target: PI3Kδ (Homo sapiens (Human), UniProt O00329); test: Activity of selected PI3K inhibitors, Ki (PI3Kδ); type: biochemical
PI3Kδ, sequence (O00329 whole entry, species assumed): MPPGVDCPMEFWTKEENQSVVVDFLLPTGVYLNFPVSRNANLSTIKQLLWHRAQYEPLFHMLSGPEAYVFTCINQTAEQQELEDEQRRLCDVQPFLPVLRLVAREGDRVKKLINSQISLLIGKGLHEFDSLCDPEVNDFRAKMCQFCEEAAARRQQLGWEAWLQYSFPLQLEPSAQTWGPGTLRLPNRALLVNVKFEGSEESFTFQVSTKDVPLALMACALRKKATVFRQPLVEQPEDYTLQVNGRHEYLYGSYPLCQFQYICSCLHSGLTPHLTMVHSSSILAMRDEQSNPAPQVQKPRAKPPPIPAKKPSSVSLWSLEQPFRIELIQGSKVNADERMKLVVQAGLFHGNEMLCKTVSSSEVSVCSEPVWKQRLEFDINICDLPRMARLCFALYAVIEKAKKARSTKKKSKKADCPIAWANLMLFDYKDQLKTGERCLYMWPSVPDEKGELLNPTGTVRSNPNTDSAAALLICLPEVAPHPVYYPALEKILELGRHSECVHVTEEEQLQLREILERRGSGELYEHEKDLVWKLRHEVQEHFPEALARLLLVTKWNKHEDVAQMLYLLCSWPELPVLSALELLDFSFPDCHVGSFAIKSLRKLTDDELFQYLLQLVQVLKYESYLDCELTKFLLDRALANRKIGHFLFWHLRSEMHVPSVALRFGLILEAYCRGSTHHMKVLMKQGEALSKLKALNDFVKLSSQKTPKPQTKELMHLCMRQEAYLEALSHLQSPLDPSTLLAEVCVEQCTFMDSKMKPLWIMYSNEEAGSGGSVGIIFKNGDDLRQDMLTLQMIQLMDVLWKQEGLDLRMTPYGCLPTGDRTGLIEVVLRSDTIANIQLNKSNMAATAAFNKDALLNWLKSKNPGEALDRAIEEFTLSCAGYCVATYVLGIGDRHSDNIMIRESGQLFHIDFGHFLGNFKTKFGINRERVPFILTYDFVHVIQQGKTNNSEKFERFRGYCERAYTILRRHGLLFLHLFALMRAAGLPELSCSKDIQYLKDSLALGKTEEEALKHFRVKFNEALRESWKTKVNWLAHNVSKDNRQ
PI3Kδ, sequence (P27986 whole entry partner, species assumed): as the sequence (P27986 whole entry partner, species assumed) above
From the text: as §1

Structure (SMILES)	steatosis development [1]	steatosis (accumulation of fat) in hepatocytes [2]	Selectivity (γ/δ) [3]	Selectivity (α/δ) [4]	Selectivity (β/δ) [5]	Ki [6] [nM]
O=c1cc(N2CCOCC2)oc2c(-c3ccccc3)cccc12 [LY294002]	blocked steatosis development	can be inhibited	–	–	–	–
Cc1cccc2nc(C(C)Nc3ncnc4[nH]cnc34)n(-c3ccccc3)c(=O)c12 (stereo not drawn) [4b]	–	–	12	132	29	5
CC(Nc1ncnc2[nH]cnc12)c1nc2ccsc2c(=O)n1-c1ccccc1 (stereo not drawn) [3e]	–	–	28	528	123	6
Cc1cccc2nc(C(C)n3cnc4c(N)ncnc43)n(-c3ccccc3)c(=O)c12 (stereo not drawn) [4a]	–	–	61	2963	119	7
CC(c1nc2ccsc2c(=O)n1-c1ccccc1)n1cnc2c(N)ncnc21 (stereo not drawn) [3d]	–	–	187	1447	126	40
